Experimental findings from article doi:10.1101/2025.11.04.686469, “Discovery of Host-Directed Small Molecules with Broad Anti-Leishmanial Efficacy” (bioRxiv, 2025) are described below.

SMILES strings stand for the structures.

The test system of one series is THP-1 macrophages. Kind of series: Effect of compounds on host cell viability (MTT). It counts as cell-based. The settings on record: read-out: 24h LC50; THP1 macrophages, 24-hour incubation, MTT assay (Supplemental Table 2). The procedure, abridged:
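Viability was read as MTT reduction: 2 h with 0.5 mg/mL, formazan dissolved in isopropanol, A560 with 670 nm background subtracted. The macrophages were PMA-differentiated THP-1 cells (150 nM, 72 h), treated 24 h at 1–50 μM or, for some compounds, 72 h at 1–300 μM.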
(In general: Tetrazolium assays rely on reduction of a dye to a coloured formazan, in cell work by metabolically active cells.)

Series [1] has as its system intracellular L. donovani amastigotes. Kind of series: Luminescent-based evaluation of intracellular anti-leishmanial activity in THP-1 macrophages. It is filed as cell-based, Leishmania donovani. The settings on record: intracellular Leishmania donovani in THP1 macrophages, luminescence assay (Supplemental Table 2); read-out: Lum IC50. The procedure: Luminescent strains, L. donovani LV82 expressing firefly luciferase (a kind gift from Dr. Abhay Satoskar, Ohio State University) and L. mexicana (NR-51210, ATCC) expressing renilla luciferase were used to evaluate the effect of the compounds in intracellular and extracellular conditions. Wild-type L. donovani LV82 (ATCC) were used for Giemsa staining based experiments. All parasites were cultured at 25°C and 5% CO2 in M199 media (Corning) supplemented with 10% FBS, 1% penicillin/streptomycin, and hemin (0.01 mg/mL), and used in experiments up to passage 15.
THP-1 cells were seeded in a 96 well plate (25,000 cells/well) overnight then differentiated with 150 nM phorbol 12-myristate 13-acetate (PMA) over 72 hours (Supplemental Figure 1). […] Briefly, promastigotes of a known cell density were resuspended in RPMI media (with 10% FBS, 1% P/S and 0.05 mM β-mercaptoethanol) and incubated with adhered THP-1 cells over 18 hours. After infection, cells were washed three times with fresh media to remove extracellular promastigotes.
Infected macrophages were then treated with compounds solubilized in DMSO ranging from 0.1-10 μM in concentrations. After 72 hours of treatment, the viability of the amastigotes within macrophages was determined using Promega firefly luminescence assay (Cat E1500) or Pierce Renilla luciferase assay (Cat 16166) for L. donovani and L. mexicana strains, respectively. Briefly, media was removed, and cells were lysed with the assay lysis buffer. The luciferase substrate was then incubated with the lysed cells for 10 min at room temperature and luminescence of live Leishmania was measured in a white opaque 96 well plate using a Biotek plate reader.

The term IC50 denotes the concentration needed to halve the response being measured. Turning to `Oc1ccc(CNC2CCN(c3ccc(-n4nc(C(F)(F)F)cc4C4CCCCC4)cc3)C2)cc1` (stereo not drawn) [Compound 362], the CC50 with THP-1 macrophages was 20 µM. Further, the IC50 in series [1] came out at 2.2 µM.
As to `FC(F)(F)c1cc(C2CC2)n(-c2ccc(NC3CCNC3)cc2)n1` (stereo not drawn) [Compound 272], the CC50 in the series with THP-1 macrophages turned out to be 17.2 µM. For the same molecule, the IC50 in series [1] was 5.6 µM.
Consider `CC(C)(C)OC(=O)NCC(=O)Nc1ccc(-n2cc(C(F)(F)F)nc2-c2ccc(-c3ccc(C(F)(F)F)cc3)cc2)cc1` [Compound 77], for which the CC50 in the series with THP-1 macrophages is over 50 µM. Also, the IC50 in series [1] is over 10 µM.
On to `CC(C)C#Cc1ccc(-c2cc(C(F)(F)F)nn2-c2ccc(N)cc2)cc1` [Compound 95], for which the CC50 in the series with THP-1 macrophages was over 50 µM. Further, in series [1], the concentration for half-maximal inhibition (IC50) was over 10 µM.
The like results for `Nc1ccc(-n2cc(C(F)(F)F)nc2-c2ccc(Oc3ccccc3)cc2)cc1` [Compound 221] were, in that order, over 50 µM and over 10 µM.
Turning to `COC(=O)c1ccc(-n2cc(C(F)(F)F)nc2-c2ccc(-c3ccc(C(F)(F)F)cc3)cc2)c(F)c1` [Compound 175], in the series with THP-1 macrophages, the CC50 is over 50 µM. For the same molecule, the IC50 in series [1] is over 10 µM.
The like results for `O=S(=O)(c1ccc(-n2cc(C(F)(F)F)nc2-c2ccc(-c3ccc(C(F)(F)F)cc3)cc2)cc1)C(F)(F)F` [Compound 244] were, in that order, over 50 µM and over 10 µM.
With `CC(C)(C)OC(=O)NC(Cc1ccccc1)C(=O)Nc1ccc(-n2cc(C(F)(F)F)nc2-c2ccc(-c3ccc(C(F)(F)F)cc3)cc2)cc1` (stereo not drawn) [Compound 78], the CC50 with THP-1 macrophages is over 50 µM. Besides, the IC50 in series [1] is over 10 µM.
With `O=C(NCc1cccc(F)c1)c1ccc(-n2cc(C(F)(F)F)nc2-c2ccc(-c3ccc(C(F)(F)F)cc3)cc2)c(F)c1` [Compound 181], the CC50 in the series on THP-1 macrophages is 28.7 µM. Besides, the IC50 in series [1] is over 10 µM.
Regarding `FC(F)(F)c1cc(C(F)(F)F)n(-c2ccc(NC3CCNC3)cc2)n1` (stereo not drawn) [Compound 314], in the series with THP-1 macrophages, the CC50 was 21.9 µM. Besides, in series [1], the IC50 came to 2.7 µM.
For `CN(C)c1ccc(-c2cc(C(F)(F)F)nn2-c2ccc(N3CCC(NC(=O)OC(C)(C)C)C3)cc2)cc1` (stereo not drawn) [Compound 217], the CC50 with THP-1 macrophages was over 50 µM. Further, the IC50 in series [1] was over 10 µM.
On to `FC(F)(F)c1cc(C2CCCCC2)n(-c2ccc(N3CCC(NCc4ccccc4)C3)cc2)n1` (stereo not drawn) [Compound 364], for which the CC50 with THP-1 macrophages stood at 31.1 µM. Further, in series [1], the 50% inhibitory concentration (IC50) was 6.8 µM.
The like results for `NC(Cc1ccccc1)C(=O)Nc1ccc(-n2cc(C(F)(F)F)nc2-c2ccc(-c3ccc(C(F)(F)F)cc3)cc2)cc1` (stereo not drawn) [Compound 80] were, in that order, 8.2 µM and 3 µM.
In the case of `CCCCCCCCNc1ccc(-n2nc(C(F)(F)F)cc2-c2ccc(-c3ccc(C(F)(F)F)cc3)cc2)cc1` [Compound 64], the CC50 in the series on THP-1 macrophages is over 50 µM. For the same molecule, the 50% inhibitory concentration (IC50) in series [1] was over 10 µM.
On to `CC(C)(C)c1ccc(-c2nc(C(F)(F)F)cn2-c2ccc(N)cc2)cc1` [Compound 149], for which the CC50 in the series with THP-1 macrophages came out at 28.8 µM. Also, the half-maximal inhibitory concentration (IC50) in series [1] is 9.1 µM.
As for `CC(C)C#Cc1ccc(-c2cc(C(F)(F)F)nn2-c2ccc(N3CCC(N)C3)cc2)cc1` (stereo not drawn) [Compound 98], the CC50 in the series on THP-1 macrophages worked out at 19.5 µM. Moreover, the half-inhibitory concentration (IC50) in series [1] is over 10 µM.
Take `Fc1cccc(CN2CCC(Nc3ccc(-n4nc(C(F)(F)F)cc4C4CCCCC4)cc3)C2)c1` (stereo not drawn) [Compound 357]: in the series on THP-1 macrophages, the CC50 is 13.1 µM. Moreover, the IC50 in series [1] amounted to 1.2 µM.
Consider `FC(F)(F)c1ccc(-c2ccc(-c3cc(C(F)(F)F)nn3-c3ccc(NC4CN(Cc5ccccc5)C4)cc3)cc2)cc1` [Compound 113], for which the CC50 with THP-1 macrophages is 19 µM. In series [1], the IC50 was over 10 µM.
`NCC(=O)NC1CCN(c2ccc(-n3nc(C(F)(F)F)cc3-c3ccc(-c4ccc(C(F)(F)F)cc4)cc3)cc2)C1` (stereo not drawn) [Compound 119]: in the series on THP-1 macrophages, the CC50 was 37.2 µM. In addition, the half-maximal inhibitory concentration (IC50) in series [1] is over 10 µM.
In the same order, the values of `NC1CCN(c2ccc(-n3nncc3-c3ccc(C(F)(F)F)cc3)cc2)C1` (stereo not drawn) [Compound 204] are 37.2 µM and over 10 µM.
As to `NCCCN1CCC(Oc2ccc(-n3nc(C(F)(F)F)cc3C3CCCCC3)cc2)CC1` [Compound 425], in the series with THP-1 macrophages, the CC50 was determined as 5.5 µM. Besides, the 50% inhibitory concentration (IC50) in series [1] came to 2.2 µM.
`FC(F)(F)c1cc(C2CCCCC2)n(-c2ccc(NC3CN(Cc4ccccc4)C3)cc2)n1` [Compound 395]: the CC50 in the series with THP-1 macrophages turned out to be 37.4 µM. Also, the IC50 in series [1] was determined as 7.6 µM.
In the same order, the values of `CC(C)(C)OC(=O)NC1CCN(c2ccc(-n3nc(C4CCCCC4)cc3C(F)(F)F)cc2)C1` (stereo not drawn) [Compound 229] are 5 µM and 3.4 µM.
Consider `FC(F)(F)c1cc(C2CCCCC2)n(-c2ccc(NC3CCNCC3)cc2)n1` [Compound 339], for which, in the series on THP-1 macrophages, the CC50 was found to be 18.2 µM. In addition, the IC50 in series [1] is 1.7 µM.
With `N#Cc1ccc(-n2cc(C(F)(F)F)nc2-c2ccc(-c3ccccc3)cc2)cc1` [Compound 180], the CC50 with THP-1 macrophages was over 50 µM. The concentration for half-maximal inhibition (IC50) in series [1] is over 10 µM.
The like results for `NCC(=O)Nc1ccc(-n2nc(C(F)(F)F)c3c2CCCC3)cc1` [Compound 331] were, in that order, 47 µM and 9.9 µM.
Consider `FC(F)(F)c1ccc(-c2ccc(-c3nc(C(F)(F)F)c[nH]3)cc2)cc1` [Compound 75], for which, in the series with THP-1 macrophages, the CC50 was found to be 48.8 µM. For the same molecule, the IC50 in series [1] was over 10 µM.
With `FC(F)(F)c1cc(-c2ccco2)n(-c2ccc(NC3CCNC3)cc2)n1` (stereo not drawn) [Compound 273], in the series with THP-1 macrophages, the CC50 was determined as 15.6 µM. Further, in series [1], the IC50 was 4.9 µM.
Take `FC(F)(F)c1c[nH]c(-c2ccc(Oc3ccccc3)cc2)n1` [Compound 218]: the CC50 with THP-1 macrophages was over 50 µM. Besides, in series [1], the IC50 was over 10 µM.
Turning to `NC1CCN(c2ccc(-n3nc(C(F)(F)F)cc3-c3ccncc3)cc2)C1` (stereo not drawn) [Compound 168], the CC50 with THP-1 macrophages is over 50 µM. Besides, the IC50 in series [1] came out at 10 µM.
In the same order, the values of `FC(F)(F)c1ccc(-c2ccc(-c3cc(C(F)(F)F)nn3-c3ccc(N4CCC(NCc5ccc(Cl)c(C(F)(F)F)c5)CC4)cc3)cc2)cc1` [Compound 120] are over 50 µM and over 10 µM.
In the same order, the values of `Fc1cccc(CNC2CCN(c3ccc(-n4nc(C(F)(F)F)cc4-c4ccc(-c5ccc(S(F)(F)(F)(F)F)cc5)cc4)cc3)C2)c1` (stereo not drawn) [Compound 108] are over 50 µM and over 10 µM.
Regarding `FC(F)(F)c1cc(C2CCCCC2)n(-c2ccc(NC3CCN(Cc4ccccc4)CC3)cc2)n1` [Compound 381], the CC50 with THP-1 macrophages amounted to 12.4 µM. In addition, the 50% inhibitory concentration (IC50) in series [1] was 6.2 µM.
On to `Oc1ccc(CN2CCC(Nc3ccc(-n4nc(C(F)(F)F)cc4C4CCCCC4)cc3)C2)cc1` (stereo not drawn) [Compound 368], for which the CC50 with THP-1 macrophages was determined as 12.1 µM. In series [1], the IC50 is 1.6 µM.
As to `FC(F)(F)c1cn(-c2ccc(NCC3CC3)cc2)c(-c2ccc(-c3ccccc3)cc2)n1` [Compound 116], the CC50 with THP-1 macrophages is over 50 µM. Also, the IC50 in series [1] amounted to 9.9 µM.
The like results for `FC(F)(F)c1ccc(-c2ccc(-c3nc(C(F)(F)F)cn3-c3ccc(N4CCNCC4)cc3)cc2)cc1` [Compound 74] were, in that order, 6.5 µM and 2.8 µM.
Regarding `COc1ccc(C(=O)N2CCC(Nc3ccc(-n4nc(C(F)(F)F)cc4-c4ccc(-c5ccc(C(F)(F)F)cc5)cc4)cc3)C2)cc1OC` (stereo not drawn) [Compound 70], in the series on THP-1 macrophages, the CC50 was over 50 µM. The 50% inhibitory concentration (IC50) in series [1] is over 10 µM.
Turning to `CC(=O)NCCOCCN1CCC(Oc2ccc(-n3nc(C(F)(F)F)cc3C3CCCCC3)cc2)CC1` [Compound 427], the CC50 with THP-1 macrophages was 29.5 µM. Further, the IC50 in series [1] amounted to 6.1 µM.
`CC(C)C#Cc1ccc(-c2cc(C(F)(F)F)nn2-c2ccc(Br)cc2)cc1` [Compound 96]: the CC50 with THP-1 macrophages amounted to 37.5 µM. For the same molecule, the concentration for half-maximal inhibition (IC50) in series [1] was over 10 µM.
